Results from article PMC4708007 (Bioscience Reports, 2015).
Read-outs that look alike come from different tables or passages of the source.

Key:
[1] = target: T1, EcRelA (Escherichia coli, UniProt P0AG20); format: biochemical
T1 construct: gene relA

[2] = target: Francisella tularensis RelA (Francisella tularensis subspecies tularensis SCHU S4); assay: SEC

T1 sequence (P0AG20 whole entry): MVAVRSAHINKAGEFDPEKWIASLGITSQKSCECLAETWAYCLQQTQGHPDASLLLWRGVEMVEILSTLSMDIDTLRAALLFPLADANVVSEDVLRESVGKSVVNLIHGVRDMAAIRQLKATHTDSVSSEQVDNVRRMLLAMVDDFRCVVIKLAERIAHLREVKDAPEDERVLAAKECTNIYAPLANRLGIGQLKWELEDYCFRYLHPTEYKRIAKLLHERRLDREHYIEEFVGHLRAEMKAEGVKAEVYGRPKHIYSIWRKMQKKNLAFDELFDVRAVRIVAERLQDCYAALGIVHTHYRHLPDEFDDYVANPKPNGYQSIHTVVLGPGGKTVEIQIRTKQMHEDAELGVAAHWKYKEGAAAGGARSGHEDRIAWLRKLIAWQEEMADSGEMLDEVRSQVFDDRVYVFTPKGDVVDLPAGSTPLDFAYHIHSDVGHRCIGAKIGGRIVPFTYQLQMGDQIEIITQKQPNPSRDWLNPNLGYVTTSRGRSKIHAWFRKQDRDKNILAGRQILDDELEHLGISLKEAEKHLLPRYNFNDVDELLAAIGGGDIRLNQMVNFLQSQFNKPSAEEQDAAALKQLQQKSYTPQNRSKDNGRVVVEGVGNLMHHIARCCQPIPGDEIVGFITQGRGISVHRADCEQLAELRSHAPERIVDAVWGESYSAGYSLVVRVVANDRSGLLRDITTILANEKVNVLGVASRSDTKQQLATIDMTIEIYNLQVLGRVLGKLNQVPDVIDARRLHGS

## Nc1nc2c(ncn2[C@@H]2O[C@H](COP(=O)(O)OP(=O)(O)OP(=O)(O)O)[C@@H](O)[C@H]2O)c(=O)[nH]1 [GTP]
[1]
  IP RP HPLC end-point assay of AMP formation: Both EcRelA and FtRelA demonstrated basal levels of activity in the absence of stalled ribosomes

## Nc1ncnc2c1ncn2[C@@H]1O[C@H](COP(=O)(O)OP(=O)(O)OP(=O)(O)O)[C@@H](O)[C@H]1O [ATP]
[1]; 2 mM ATP and 2 mM GTP, 0.5 μM RelA, with or without stalled ribosomal complexes, 15 mM MgCl2, pH 8.0, 30°C
  IP RP HPLC end-point assay of AMP formation: Both EcRelA and FtRelA demonstrated basal levels of activity in the absence of stalled ribosomes

## Francisella tularensis RelA (enzyme)
[2]
  stoichiometry N: 2
